Data published in patent US6528516B1, “Methods for reducing intraocular pressure using A3 adenosine receptor antagonists” (Trustees of the University of Pennsylvania, The Center for …, priority 1998, dated 2003).
“Also recorded” adds a separate entry of the source.

Legend:
[1] = test system: bovine pigmented ciliary epithelial (PE) cells; assay: Cell volume (shrinkage) of PE cells in isoosmotic suspension, Coulter Counter; type: cell-based; conditions: for effect of tamoxifen alone on PE cell volume: absence of ATP, 30-min observation
[2] = test system: Bovine PE cells; assay: Intracellular Ca2+ of PE cells (fura-2); type: cell-based; conditions: for effect of TMX on the Ca2+ response to ATP: 10 μM TMX, 100 μM ATP, 20-sec applications
Description: Bovine PE cells grown on coverslips for 2-4 days were loaded with 5 μM fura-2 μAM for 30-45 min at room temperature, and then rinsed and maintained in fura-free solution before beginning data acquisition. The coverslips were mounted on a Nikon Diaphot microscope and visualized with a ×40 oil-immersion fluorescence objective. The emitted fluorescence (510 nm) from 10-12 confluent cells was sampled at 1 Hz following excitation at 340 nm and 380 nm, and the ratio determined with a Delta-Ram system and Felix software (Photon Technology International Inc., Princeton, N.J.). The ratio of light excited at 340 nm to that at 380 nm was converted into Ca^2+ concentration using the method of Grynkiewicz et al. (J. Biol. Chem. 260:3440-3450, 1985). […] Rmin was obtained by bathing cells in a Ca^2+ free isotonic solution of pH 8.0 containing 10 mM EGTA and 5 μM ionomycin. R^max was obtained by bathing the cells in isotonic solution with 1.3 mM Ca^2+ and 5 μM ionomycin. Calibration was performed separately for each experiment. Baseline levels from PE cells in the absence of fura-2 were subtracted from records to control for autofluorescence. Experiments were performed predominantly at room temperature, but several trials were performed at 37° C. using a temperature control unit from Warner Instrument Corp., (Hamden, Conn.). Cells were perfused with an isotonic solution containing (in mM) 105 NaCl, 6HEPES (acid), 4HEPES (Na^+), 1.3 CaCl2, 1 MgCl2, 4 KCl, 5 glucose and 90 mannitol, at an osmolarity of 317 mOsm, pH 7.4.

[3] = test system: swelling-activated Cl− channels of NPE cells; assay: Regulatory volume decrease (RVD) of NPE cells after hypotonic swelling; type: cell-based, human; conditions: for effect on cell volume after RVD: TMX added at t=10 min, conclusion of the RVD
[4] = test system: large-conductance Cl− channel, NIH 3T3 fibroblasts transfected with MDR1; conditions: NIH 3T3 fibroblasts after MDR1 transfection and growth in colchicine; read-out: EC50 for activation of large-conductance Cl− channel; cited from earlier work
[5] = 6 μM tamoxifen + 10 μM ATP, 5 μM gramicidin D, Cl− present, FIG. 12A
[6] = 6 μM tamoxifen + 10 μM ATP, FIG. 8C
[7] = 10 μM tamoxifen + 100 μM ATP, FIG. 15, first 6 time points
[8] = 10 μM tamoxifen + 100 μM ATP, FIG. 16A
[9] = 100 μM ATP + 10 μM TMX, FIG. 13C
[10] = 100 μM ATP + 10 μM agent, FIG. 13A
[11] = 100 μM ATP + 10 μM agent, FIG. 14A
[12] = ATP + agent (ATP+TMX; ATP+atropine), FIG. 13B
[13] = ATP + tamoxifen, absence of Cl− channel inhibitors, FIG. 12B

CC/C(=C(\c1ccccc1)c1ccc(OCCN(C)C)cc1)c1ccccc1 [tamoxifen]
steady-state cell volume (v∞) ([1]; 3 μM ATP+10 μM TMX, FIG. 8B): 96.7±0.4%
time constant of the shrinkage (τ) ([1]; 3 μM ATP+10 μM TMX, FIG. 8B): 5.8 ± 2.1 min
steady-state cell volume (v∞) [1, 5]: 90.6%±1.1%
time constant of the shrinkage (τ) [1, 5]: 13.2 ± 3.2 min
steady-state cell volume (v∞) [1, 6]: 95.7±0.7%
time constant of the shrinkage (τ) [1, 6]: 6.6 ± 3.2 min
steady-state cell volume (v∞) ([1]; 10 μM ATP + 6 μM TMX, FIG. 10A): 92.8±0.8%
time constant of the shrinkage (τ) ([1]; 10 μM ATP + 6 μM TMX, FIG. 10A): 11.4 ± 0.3 min
steady-state cell volume (v∞) ([1]; 10 μM ATP+10 μM TMX, FIG. 8B): 95.7±0.3%
time constant of the shrinkage (τ) ([1]; 10 μM ATP+10 μM TMX, FIG. 8B): 1.4 ± 0.7 min
effect of agent on shrinkage in the presence of ATP ([1]; 10 μM agent, 100 μM ATP, FIG. 13A): enhanced shrinkage
steady-state cell volume (v∞) [1, 7]: 89.7±6.1%
time constant of the shrinkage (τ) [1, 7]: 22.9 ± 19.0 min
steady-state cell volume (v∞) [1, 8]: 93.9±1.0%
time constant of the shrinkage (τ) [1, 8]: 15.6 ± 5.0 min
steady-state cell volume (v∞) [1, 9]: 89.6±1.9%
time constant of the shrinkage (τ) [1, 9]: 11.3 ± 4.7 min
steady-state cell volume (v∞) [1, 10]: 94.1±0.6%
time constant of the shrinkage (τ) [1, 10]: 6.5 ± 2.3 min
steady-state cell volume (v∞) [1, 11]: 94.8±0.4%
time constant of the shrinkage (τ) [1, 11]: 2.2 ± 10.8 min
effect of tamoxifen on the ATP-triggered shrinkage ([1]; 6-10 μM tamoxifen with ATP): strongly enhanced; also recorded: enhanced the response; also recorded: enhanced the ATP-triggered shrinkage
steady-state cell volume (v∞) [1, 12]: 88.4±0.5%
time constant of the shrinkage (τ) [1, 12]: 7.2 ± 0.9 min
steady-state cell volume (v∞) [1, 13]: 94.2%±0.3%
time constant of the shrinkage (τ) [1, 13]: 4.4 ± 0.8 min
effect of tamoxifen alone on PE cell volume [1]: no consistent response
effect of tamoxifen alone on PE cell volume ([1]; listed as Tamoxifen): no consistent effect
effect of TMX on the Ca2+ response to ATP [2]: does not alter the magnitude of the response
effect of TMX on the Ca2+ response to ATP ([2]; listed as TMX): did not affect the size
change (Δ) in intracellular Ca2+ ([2]; 10 μM tamoxifen alone): 7 ± 6 nM
effect of tamoxifen alone on Ca2+ ([2]; tamoxifen alone): no significant effect
effect on regulatory volume decrease (RVD) ([3]; TMX added at t=5 min): reduced the magnitude of the RVD
effect on regulatory volume decrease (RVD) ([3]; TMX added at t=5 min, listed as TMX): partially inhibited the steady-state response
effect on cell volume after RVD [3]: did not affect cell volume
effect on cell volume after RVD ([3]; listed as TMX): no effect on cell volume
effect on regulatory volume decrease (RVD) ([3]; TMX added at the time of hypotonic stress, 5 μM gramicidin D): completely abolished the RVD
effect on regulatory volume decrease (RVD) ([3]; TMX added at the time of hypotonic stress, 5 μM gramicidin D, listed as TMX): abolished the RVD
EC50 [4]: ~15 µM
